Laboratory results taken from ChEMBL document CHEMBL5532680, “Identification of a Sonically Activated Degrader of Methionine Adenosyltransferase 2A by an in Silico Approach Assisted with the Hole-Electron Analysis” (J Med Chem, 2024).
Calls of active or inactive are those of the source. The rule behind the calls is not given here.

Tests used:
HCT-116 [1] = assay: Antiproliferative activity against MTAP knocked out human HCT-116 cells incubated for 5 days by MTT method; assay type: functional, cell-based; conditions: HCT-116, 120 h
[2] = target: T1, S-adenosylmethionine synthase isoform type-2 (Homo sapiens, UniProt P31153); assay: Induction of MAT2A degradation in human HCT-116 cells assessed as degradation maximum at higher than 1 uM preincubated for 4 hrs followed by 1.0 MHz, 0.8W/cm2 ultrasound treatment for 0.5 mins by Western blotting assay relative to control; assay type: cell-based; conditions: time 240.5 min
Target sequence in this assay (P31153 whole entry, looked up, canonical isoform): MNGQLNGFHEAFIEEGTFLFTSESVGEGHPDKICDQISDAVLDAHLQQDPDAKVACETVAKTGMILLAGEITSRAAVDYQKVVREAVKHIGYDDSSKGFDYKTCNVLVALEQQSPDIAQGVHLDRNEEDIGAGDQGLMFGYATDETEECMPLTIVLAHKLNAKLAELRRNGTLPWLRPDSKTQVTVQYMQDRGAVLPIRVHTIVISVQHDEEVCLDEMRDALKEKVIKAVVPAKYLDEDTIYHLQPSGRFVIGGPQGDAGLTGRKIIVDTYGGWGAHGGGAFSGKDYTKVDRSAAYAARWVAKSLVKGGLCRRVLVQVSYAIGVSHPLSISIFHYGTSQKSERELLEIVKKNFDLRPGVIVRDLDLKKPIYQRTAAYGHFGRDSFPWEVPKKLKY

HCT-116 [3] = assay: Induction of apoptosis in human HCT-116 cells assessed as increase in late apoptotic cells at 0.1 uM preincubated for 24 hrs followed by sonication for 4 mins by annexin V-FITC/PI staining based flow cytometry analysis relative to control; assay type: functional; conditions: time 1444 min, 24.07 h
HCT-116 [4] = assay: Antiproliferative activity against wild type human HCT-116 cells at less than 1 uM incubated for 5 days by MTT method; assay type: functional, cell-based; conditions: time 5.0 day
[5] = Cmax in ICR mouse at 10 mg/kg, po measured upto 24 hrs by LC-MS/MS analysis; assay type: ADME, organism-based; conditions: in vivo
[6] = Toxicity in BALB/c mouse xenografted with human HCT-116 cells assessed as change in liver cell nucleus size at 100 mg/kg, po by H and E staining based assay; assay type: organism-based; conditions: in vivo
[7] = target: T1, S-adenosylmethionine synthase isoform type-2; assay: Inhibition of recombinant human MAT2A expressed in baculovirus infected Sf9 cells at grated than 10 nM using L-methione as substrate preincubated for 15 mins followed by substrate addition and measured after 60 mins in presence of ATP by Kinase-Glo luminescent assay; conditions: time 75.0 min
Target sequence in this assay (P31153 whole entry, looked up, canonical isoform): as above

[8] = Biodistribution in MATP knocked out human HCT-116 cells xenografted in BALB/c mouse assessed as fluorescence intensity in liver at 10 mg/kg, po measured after 24 hrs; assay type: ADME, organism-based; conditions: in vivo
[9] = Drug metabolism in BALB/c mouse blood after 24 hrs; assay type: ADME, tissue-based
[10] = Mean residence time in BALB/c mouse at 10 mg/kg, po measured upto 24 hrs by LC-MS/MS analysis; assay type: ADME, organism-based; conditions: in vivo
[11] = Biodistribution in […] knocked out human HCT-116 cells xenografted in BALB/c mouse assessed as fluorescence intensity in heart at 10 mg/kg, po measured after 24 hrs; assay type: ADME, organism-based; conditions: in vivo
Cytochrome P450 2D6 = Cytochrome P450 2D6 (Homo sapiens, UniProt P10635); assay: Inhibition of CYP2D6 (unknown origin); assay type: ADME
[12] = Toxicity in BALB/c mouse xenografted with human HCT-116 cells assessed as kidney damage at 100 mg/kg, po by H and E staining based assay; assay type: organism-based; conditions: in vivo
[13] = Oral bioavailability in ICR mouse at 10 mg/kg measured upto 24 hrs by LC-MS/MS analysis; assay type: ADME, organism-based; conditions: in vivo
[14] = Drug localization in human HCT-116 cells cytoplasm assessed as bright red fluorescence at 1 uM by Hoechst 33342 staining based confocal assay; assay type: ADME, cell-based; conditions: hct-116, 1 µM
[15] = Half-life in ICR mouse at 10 mg/kg, po measured upto 24 hrs by LC-MS/MS analysis; assay type: ADME, organism-based; conditions: in vivo
[16] = Tmax in BALB/c mouse at 10 mg/kg, po measured upto 24 hrs by LC-MS/MS analysis; assay type: ADME, organism-based; conditions: in vivo
[17] = Toxicity in BALB/c mouse xenografted with human HCT-116 cells assessed as heart damage at 10 mg/kg, po by H and E staining based assay; assay type: organism-based; conditions: in vivo
Cytochrome P450 2C9 = Cytochrome P450 2C9 (Homo sapiens, UniProt P11712); assay: Inhibition of CYP2C9 (unknown origin); assay type: ADME
[18] = Biodistribution in MATP knocked out human HCT-116 cells xenografted in BALB/c mouse assessed as fluorescence intensity in skin at 10 mg/kg, po measured after 24 hrs; assay type: ADME, organism-based; conditions: in vivo
Cytochrome P450 2C19 = Cytochrome P450 2C19 (Homo sapiens, UniProt P33261); assay: Inhibition of CYP2C19 (unknown origin); assay type: ADME
[19] = Toxicity in BALB/c mouse xenografted with human HCT-116 cells assessed as heart damage at 100 mg/kg, po by H and E staining based assay; assay type: organism-based; conditions: in vivo
[20] = Tmax in ICR mouse at 10 mg/kg, po measured upto 24 hrs by LC-MS/MS analysis; assay type: ADME, organism-based; conditions: in vivo
[21] = Biodistribution in MATP knocked out human HCT-116 cells xenografted in BALB/c mouse assessed as fluorescence intensity in spleen at 10 mg/kg, po measured after 24 hrs; assay type: ADME, organism-based; conditions: in vivo
[22] = target: T1, S-adenosylmethionine synthase isoform type-2; assay: Inhibition of recombinant human MAT2A expressed in baculovirus infected Sf9 cells using L-methione as substrate preincubated for 15 mins followed by substrate addition and measured after 60 mins in presence of ATP by Kinase-Glo luminescent assay
Target sequence in this assay (P31153 whole entry, canonical isoform): as the sequence (P31153 whole entry, looked up, canonical isoform) above

[23] = Toxicity in BALB/c mouse xenografted with human HCT-116 cells assessed as spleen damage at 100 mg/kg, po by H and E staining based assay; assay type: organism-based; conditions: in vivo
HCT-116 [24] = assay: Antitumor activity against […] knocked out human HCT-116 cells xenografted in BALB/c mouse assessed as tumor growth inhibition at 100 mg/kg, po administered once a day for 6 hrs and measured after 3 weeks; assay type: functional; conditions: HCT-116, 504 h, read-out: TGI
[25] = Biodistribution in MATP knocked out human HCT-116 cells xenografted in BALB/c mouse assessed as fluorescence intensity in tumor at 10 mg/kg, po measured after 24 hrs; assay type: ADME, organism-based; conditions: in vivo
HCT-116 [26] = assay: Antitumor activity against […] knocked out human HCT-116 cells xenografted in BALB/c mouse assessed as tumor growth inhibition at 10 mg/kg, po administered once a day for 6 hrs and measured after 3 weeks; assay type: functional; conditions: HCT-116, 504 h, read-out: TGI
[27] = Toxicity in BALB/c mouse xenografted with human HCT-116 cells assessed as body weight loss at 10 mg/kg, po administered once a day followed by 4 mins sonication post 6 hrs of compound administration and measured for 3 weeks; assay type: organism-based; conditions: in vivo, 504 h
HCT-116 [28] = assay: Antitumor activity against […] knocked out human HCT-116 cells xenografted in BALB/c mouse assessed as tumor growth inhibition at 50 mg/kg, po administered once a day for 6 hrs and measured after 3 weeks; assay type: functional; conditions: HCT-116, 504 h, read-out: TGI
HCT-116 [29] = assay: Induction of ROS generation in human HCT-116 cells assessed as fold increase at 0.1 uM preincubated for 6 hrs followed by sonication for 4 mins by DCFH-DA staining based flow cytometry analysis; assay type: functional; conditions: time 364 min, 6.067 h
[30] = Intrinsic clearance in human liver microsomes; assay type: ADME, Microsome; conditions: read-out: CLH
[31] = target: T1, S-adenosylmethionine synthase isoform type-2; assay: Induction of MAT2A degradation in human HCT-116 cells incubated for 4 hrs by Western blotting assay; assay type: cell-based
Target sequence in this assay (P31153 whole entry, looked up, canonical isoform): as above

[32] = Toxicity in BALB/c mouse xenografted with human HCT-116 cells assessed as lung damage at 10 mg/kg, po by H and E staining based assay; assay type: organism-based; conditions: in vivo
[33] = Toxicity in BALB/c mouse xenografted with human HCT-116 cells assessed as kidney damage at 10 mg/kg, po by H and E staining based assay; assay type: organism-based; conditions: in vivo

Cytochrome P450 2C19, sequence (P33261 whole entry): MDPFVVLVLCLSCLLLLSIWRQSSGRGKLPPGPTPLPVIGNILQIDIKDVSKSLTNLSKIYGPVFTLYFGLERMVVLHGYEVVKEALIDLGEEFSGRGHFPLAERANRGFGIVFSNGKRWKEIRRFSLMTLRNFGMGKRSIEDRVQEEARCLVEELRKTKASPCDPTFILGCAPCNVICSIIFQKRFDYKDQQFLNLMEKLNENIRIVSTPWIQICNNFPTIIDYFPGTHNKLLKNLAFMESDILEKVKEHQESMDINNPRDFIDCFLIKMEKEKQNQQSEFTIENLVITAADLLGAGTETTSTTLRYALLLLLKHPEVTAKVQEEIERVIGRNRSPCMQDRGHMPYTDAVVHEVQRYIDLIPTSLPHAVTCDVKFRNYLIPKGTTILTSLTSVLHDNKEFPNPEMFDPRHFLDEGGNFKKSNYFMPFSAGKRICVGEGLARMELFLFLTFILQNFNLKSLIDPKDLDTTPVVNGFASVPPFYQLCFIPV
Cytochrome P450 2D6, sequence (P10635 whole entry): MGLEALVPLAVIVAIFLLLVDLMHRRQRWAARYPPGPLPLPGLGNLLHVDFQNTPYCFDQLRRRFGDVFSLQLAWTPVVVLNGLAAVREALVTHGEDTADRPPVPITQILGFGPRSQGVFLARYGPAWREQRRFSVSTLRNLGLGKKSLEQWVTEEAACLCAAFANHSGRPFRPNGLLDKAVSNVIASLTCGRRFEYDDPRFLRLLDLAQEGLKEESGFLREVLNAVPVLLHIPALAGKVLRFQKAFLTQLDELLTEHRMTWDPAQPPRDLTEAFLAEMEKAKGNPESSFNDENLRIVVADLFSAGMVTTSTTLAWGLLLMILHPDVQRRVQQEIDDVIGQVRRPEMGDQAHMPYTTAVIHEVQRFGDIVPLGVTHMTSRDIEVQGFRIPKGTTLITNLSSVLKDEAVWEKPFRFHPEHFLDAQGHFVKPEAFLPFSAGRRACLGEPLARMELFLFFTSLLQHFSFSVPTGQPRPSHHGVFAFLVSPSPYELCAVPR
Cytochrome P450 2C9, sequence (P11712 whole entry): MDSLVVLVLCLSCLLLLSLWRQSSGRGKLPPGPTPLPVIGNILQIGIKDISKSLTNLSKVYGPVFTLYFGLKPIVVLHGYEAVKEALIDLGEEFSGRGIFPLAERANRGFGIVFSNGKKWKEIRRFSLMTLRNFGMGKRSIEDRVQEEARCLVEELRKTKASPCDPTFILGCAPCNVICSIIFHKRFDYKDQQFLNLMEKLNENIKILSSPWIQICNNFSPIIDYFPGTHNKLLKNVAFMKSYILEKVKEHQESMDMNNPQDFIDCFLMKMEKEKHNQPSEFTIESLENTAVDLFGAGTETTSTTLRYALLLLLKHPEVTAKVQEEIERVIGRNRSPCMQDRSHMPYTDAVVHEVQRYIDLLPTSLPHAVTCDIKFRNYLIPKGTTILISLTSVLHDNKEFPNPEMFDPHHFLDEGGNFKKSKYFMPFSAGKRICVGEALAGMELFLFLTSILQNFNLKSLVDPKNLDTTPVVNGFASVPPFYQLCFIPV

CCOc1ncc2cc(-c3ccc4c(c3)N3CCCC3CO4)c(=O)n(-c3ccc(OC(F)F)cc3)c2n1 (stereo unspecified)
IC50 (HCT-116 [1]): 0.35 µM | Emax [2]: 76% | Activity (HCT-116 [3]): 9% | Activity (HCT-116 [4]): inactive | Cmax [5]: 1380 ng/mL | Activity [6]: Toxic | inhibition [7]: Active | Drug uptake [8]: Active | Drug metabolism [9]: Metabolite_Detected | MRT [10]: 5.1 h | Drug uptake [11]: Not Active | IC50 (Cytochrome P450 2D6): 39 µM | Activity [12]: Non-Toxic | bioavailability [13]: 77% | Drug uptake [14]: Active | half-life [15]: 2.9 h | Tmax [16]: 1 h | Activity [17]: Non-Toxic | IC50 (Cytochrome P450 2C9): 31 µM | Drug uptake [18]: Active | IC50 (Cytochrome P450 2C19): 16 µM | Activity [19]: Non-Toxic | Tmax [20]: 0.5 h | Drug uptake [21]: Not Active | IC50 [22]: 0.061 µM | Activity [23]: Non-Toxic | inhibition in vivo at 100 mg/kg (HCT-116 [24]): 96.5% | Drug uptake [25]: Active | inhibition in vivo at 10 mg/kg (HCT-116 [26]): 15.6% | Activity [27]: Non-Toxic | inhibition in vivo at 50 mg/kg (HCT-116 [28]): 93.5% | fold change (FC) (HCT-116 [29]): 6 | CLint scaled [30]: 9.6 mL/min/kg | Activity [31]: inactive | Activity [32]: Non-Toxic | Activity [33]: Non-Toxic
